Test results from patent US20250353891A1 (MEDIMMUNE LIMITED, priority 2022, published 2025).
Like-named read-outs stand apart in the source and are kept apart here. Starred links: 1 amine or outer side, 2 acyl side, 3 side chain; linkers in the order of their positions; H or OH if unused. Non-standard residues stand in square brackets, D forms with d. Residues, ends and D or L forms follow the SMILES beside them. Groups on a side chain read outwards from the residue. *: point of attachment. X1 = CC(C)(CCNC(=N)N)[C@H](N[*:1])C(=O)[*:2]; C20 diacid = O=C(O)CCCCCCCCCCCCCCCCCCC(=O)*; C18 diacid = O=C(O)CCCCCCCCCCCCCCCCC(=O)*; γGlu = O=C(O)[C@H](CCC(=O)[*:2])N[*:1]; Palmitoyl = CCCCCCCCCCCCCCCC(=O)*; αMeF = C[C@](N)(Cc1ccccc1)C(=O)O; PEG2 = NCCOCCOCCC(=O)O; AEEA = NCCOCCOCC(=O)O; Aib = CC(C)(N)C(=O)O

Assays:
[1] = molecular target: human GLP-1 receptor (hGLP-1R) (Homo sapiens, UniProt P43220); assay: cAMP production (HTRF) in CHO cells expressing hGLP-1R; assay type: cell-based; parameters: expressed in transfected cells; details: for % Relative Potency Ratio: % GLP-1R activity relative to GLP-1 / % GlucR activity relative to glucagon; for EC50: geometric mean, read-out: hGLP-1R EC50
Method in brief: (§1)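 Cells were resuspended in assay buffer at batch-optimized density, typically 1×10^5 cells/mL for hGLP-1R and 2×10^5 cells/mL for hGCGR. After 30 min incubation at room temperature with compound, cAMP was measured by two-step HTRF. EC50 values came from 4-parameter logistic fits of % Delta F.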

[2] = molecular target: human glucagon receptor (hGCGR) (Homo sapiens, UniProt P47871); assay: cAMP production (HTRF) in CHO cells expressing hGCGR; assay type: cell-based; parameters: expressed in transfected cells; details: geometric mean, read-out: hGluc-R EC50
Method in brief: as §1

[3] = Table 6, peptides modified at position 17, cAMP in CHO hGLP-1R cells
[4] = Table 6, peptides modified at position 17, cAMP in CHO hGCGR cells

Sequence of human GLP-1 receptor (hGLP-1R) (P43220 24-463): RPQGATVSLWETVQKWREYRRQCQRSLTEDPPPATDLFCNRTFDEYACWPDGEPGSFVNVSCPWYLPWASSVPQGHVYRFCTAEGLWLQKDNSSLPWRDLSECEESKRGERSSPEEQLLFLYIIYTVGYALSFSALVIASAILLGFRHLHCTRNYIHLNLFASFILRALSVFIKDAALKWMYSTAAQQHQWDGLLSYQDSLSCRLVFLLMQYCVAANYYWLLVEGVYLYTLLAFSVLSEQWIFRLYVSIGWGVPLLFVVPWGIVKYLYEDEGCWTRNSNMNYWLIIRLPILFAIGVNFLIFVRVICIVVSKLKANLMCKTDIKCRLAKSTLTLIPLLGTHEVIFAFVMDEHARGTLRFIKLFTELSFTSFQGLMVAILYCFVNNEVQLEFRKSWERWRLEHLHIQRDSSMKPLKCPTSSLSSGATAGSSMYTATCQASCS
Sequence of human glucagon receptor (hGCGR) (P47871 26-477): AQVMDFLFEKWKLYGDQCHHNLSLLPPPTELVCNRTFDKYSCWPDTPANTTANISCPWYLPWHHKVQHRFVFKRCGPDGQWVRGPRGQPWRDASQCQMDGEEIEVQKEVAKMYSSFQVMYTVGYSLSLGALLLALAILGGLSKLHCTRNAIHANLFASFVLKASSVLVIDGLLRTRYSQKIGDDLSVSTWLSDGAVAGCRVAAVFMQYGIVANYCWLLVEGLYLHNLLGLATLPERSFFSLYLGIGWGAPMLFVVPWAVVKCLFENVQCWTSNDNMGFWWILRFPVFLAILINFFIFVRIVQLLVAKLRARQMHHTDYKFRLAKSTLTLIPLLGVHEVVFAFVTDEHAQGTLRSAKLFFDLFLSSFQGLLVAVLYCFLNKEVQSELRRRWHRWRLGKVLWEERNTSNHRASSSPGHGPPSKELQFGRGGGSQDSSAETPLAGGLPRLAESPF

Row | SMILES | % Relative Potency Ratio [1] | EC50 ([1]; cAMP, CHO cells, 0.1% BSA) | EC50 ([2]; cAMP, CHO cells, 0.1% BSA) | EC50 [1, 3] | % Relative Potency Ratio ([1]; Table 6) | EC50 [2, 4]
1 | CC[C@H](C)[C@H](NC(=O)[C@H](CO)NC(=O)[C@H](CCCCNC(=O)COCCOCCNC(=O)COCCOCCNC(=O)CC[C@H](NC(=O)CC[C@H](NC(=O)CCCCCCCCCCCCCCCCC(=O)O)C(=O)O)C(=O)O)NC(=O)[C@@H](NC(=O)[C@H](Cc1ccccc1)NC(=O)[C@H](CC(=O)O)NC(=O)[C@H](CCC(N)=O)NC(=O)[C@H](C)NC(=O)C(C)(C)NC(=O)[C@H](CCCNC(=N)N)NC(=O)[C@H](CO)NC(=O)[C@H](CC(=O)O)NC(=O)[C@H](CC(C)C)NC(=O)[C@](C)(Cc1ccccc1)NC(=O)[C@H](CCCCN)NC(=O)[C@H](CO)NC(=O)[C@@H](NC(=O)[C@H](CC(=O)O)NC(=O)[C@H](CO)NC(=O)[C@@H](NC(=O)[C@](C)(Cc1ccccc1)NC(=O)[C@H](CO)NC(=O)CNC(=O)[C@H](Cc1c[nH]cn1)NC(=O)C(C)(C)NC(=O)[C@@H](N)Cc1c[nH]cn1)[C@@H](C)O)C(C)C)C(C)C)C(=O)N[C@@H](C)C(=O)N[C@@H](CC(N)=O)C(=O)N[C@H](C(=O)NCC(=O)NCC(N)=O)[C@@H](C)O [Peptide 382, H(Aib)HGS(αMePhe)TSDVSK(αMePhe)LDSR(Aib)AQDFVK(O2OC-O2OC-γE-γE-C18diacid)24SIANTGG-amide] (H-H[Aib]HGS[αMeF]TSDVSK[αMeF]LDSR[Aib]AQDFVK([AEEA-AEEA-γGlu-γGlu-C18 diacid])SIANTGG-NH2; N-terminus assumed) | 11.6 | 0.056 nM | 0.329 nM |  |  | 
2 | CC[C@H](C)[C@H](NC(=O)C(C)(C)NC(=O)[C@H](CCCCNC(=O)COCCOCCNC(=O)COCCOCCNC(=O)CC[C@H](NC(=O)CCCCCCCCCCCCCCCCC(=O)O)C(=O)O)NC(=O)[C@@H](NC(=O)[C@](C)(Cc1ccccc1)NC(=O)[C@H](CC(=O)O)NC(=O)[C@H](CCC(N)=O)NC(=O)[C@H](C)NC(=O)[C@H](C)NC(=O)[C@H](CCC(N)=O)NC(=O)[C@H](CO)NC(=O)[C@H](CC(=O)O)NC(=O)[C@H](CC(C)C)NC(=O)[C@](C)(Cc1ccccc1)NC(=O)[C@H](CCCCN)NC(=O)[C@H](CO)NC(=O)[C@@H](NC(=O)[C@H](CC(=O)O)NC(=O)[C@H](CO)NC(=O)[C@@H](NC(=O)[C@](C)(Cc1ccccc1)NC(=O)[C@H](CO)NC(=O)CNC(=O)[C@H](Cc1c[nH]cn1)NC(=O)C(C)(C)NC(=O)[C@@H](N)Cc1c[nH]cn1)[C@@H](C)O)C(C)C)C(C)C)C(=O)N[C@@H](C)C(=O)N[C@@H](CC(N)=O)C(=O)N[C@H](C(N)=O)[C@@H](C)O [Peptide 383] (H-H[Aib]HGS[αMeF]TSDVSK[αMeF]LDSQAAQD[αMeF]VK([AEEA-AEEA-γGlu-C18 diacid])[Aib]IANT-NH2; N-terminus assumed) | 2.3 | 0.197 nM | 0.232 nM |  |  | 
3 | CC[C@H](C)[C@H](NC(=O)C(C)(C)NC(=O)[C@H](CCCCNC(=O)COCCOCCNC(=O)COCCOCCNC(=O)CC[C@H](NC(=O)CC[C@H](NC(=O)CCCCCCCCCCCCCCCCCCC(=O)O)C(=O)O)C(=O)O)NC(=O)[C@@H](NC(=O)[C@](C)(Cc1ccccc1)NC(=O)[C@H](CC(=O)O)NC(=O)[C@H](CCC(N)=O)NC(=O)[C@H](C)NC(=O)[C@H](C)NC(=O)[C@H](CCC(N)=O)NC(=O)[C@H](CO)NC(=O)[C@H](CC(=O)O)NC(=O)[C@H](CC(C)C)NC(=O)[C@](C)(Cc1ccccc1)NC(=O)[C@H](CCCCN)NC(=O)[C@H](CO)NC(=O)[C@@H](NC(=O)[C@H](CC(=O)O)NC(=O)[C@H](CO)NC(=O)[C@@H](NC(=O)[C@](C)(Cc1ccccc1)NC(=O)[C@H](CO)NC(=O)CNC(=O)[C@H](Cc1c[nH]cn1)NC(=O)C(C)(C)NC(=O)[C@@H](N)Cc1c[nH]cn1)[C@@H](C)O)C(C)C)C(C)C)C(=O)N[C@@H](C)C(=O)N[C@@H](CC(N)=O)C(=O)N[C@H](C(N)=O)[C@@H](C)O [Peptide 384] (H-H[Aib]HGS[αMeF]TSDVSK[αMeF]LDSQAAQD[αMeF]VK([AEEA-AEEA-γGlu-γGlu-C20 diacid])[Aib]IANT-NH2; N-terminus assumed) | 3.1 | 0.797 nM | 1.24 nM |  |  | 
4 | CCCCCCCCCCCCCCCC(=O)N[C@@H](CCC(=O)N[C@@H](CCC(=O)NCCOCCOCCC(=O)NCCOCCOCCC(=O)NCCCC[C@H](NC(=O)[C@H](CCCCN)NC(=O)[C@H](CO)NC(=O)[C@@H](NC(=O)[C@H](CC(=O)O)NC(=O)[C@H](CO)NC(=O)[C@@H](NC(=O)[C@](C)(Cc1ccccc1)NC(=O)[C@H](CO)NC(=O)CNC(=O)[C@H](CCC(N)=O)NC(=O)[C@H](CO)NC(=O)[C@@H](N)Cc1c[nH]cn1)[C@@H](C)O)C(C)C)C(=O)N[C@@H](CC(C)C)C(=O)N[C@@H](CC(=O)O)C(=O)N[C@@H](CO)C(=O)N[C@H](C(=O)N[C@@H](C)C(=O)N[C@@H](C)C(=O)N[C@@H](CCC(N)=O)C(=O)N[C@@H](CC(=O)O)C(=O)N[C@@](C)(Cc1ccccc1)C(=O)N[C@H](C(=O)N[C@@H](CCC(=O)O)C(=O)NC(C)(C)C(=O)N[C@@H](CC(C)C)C(=O)N[C@@H](C)C(=O)N[C@@H](CC(N)=O)C(=O)N[C@H](C(N)=O)[C@@H](C)O)C(C)C)C(C)(C)CCNC(=N)N)C(=O)O)C(=O)O [Peptide 400, HSQGS(αMePhe)TSDVSKK((PEG)2-(PEG)2-γE-γE-Palmitoyl)13LDS(β-dimethylArg)AAQD(αMePhe)VE(Aib)LANT-amide] (H-HSQGS[αMeF]TSDVSKK([PEG2-PEG2-γGlu-γGlu-Palmitoyl])LDS[X1]AAQD[αMeF]VE[Aib]LANT-NH2; N-terminus assumed) | 16.7 | 0.00127 nM | 0.0107 nM |  |  | 

Further lines, results first:

Row | % Relative Potency Ratio [1] | EC50 ([1]; cAMP, CHO cells, 0.1% BSA) | EC50 ([2]; cAMP, CHO cells, 0.1% BSA) | EC50 [1, 3] | % Relative Potency Ratio ([1]; Table 6) | EC50 [2, 4] | SMILES
5 | 31.6 | 0.458 nM | 7.31 nM |  |  |  | CC[C@H](C)[C@H](NC(=O)C(C)(C)NC(=O)[C@H](CCC(N)=O)NC(=O)[C@@H](NC(=O)[C@](C)(Cc1ccccc1)NC(=O)[C@H](CC(=O)O)NC(=O)[C@H](CCC(N)=O)NC(=O)[C@H](C)NC(=O)[C@H](C)NC(=O)[C@H](CCCNC(=N)N)NC(=O)[C@H](CO)NC(=O)[C@H](CC(=O)O)NC(=O)[C@H](CC(C)C)NC(=O)[C@H](CCCCNC(=O)COCCOCCNC(=O)COCCOCCNC(=O)CC[C@H](NC(=O)CCCCCCCCCCCCCCCCC(=O)O)C(=O)O)NC(=O)[C@H](CCCCN)NC(=O)[C@H](CO)NC(=O)[C@@H](NC(=O)[C@H](CC(=O)O)NC(=O)[C@H](CO)NC(=O)[C@@H](NC(=O)[C@](C)(Cc1ccccc1)NC(=O)[C@H](CO)NC(=O)CNC(=O)[C@H](Cc1c[nH]cn1)NC(=O)C(C)(C)NC(=O)[C@@H](N)Cc1c[nH]cn1)[C@@H](C)O)C(C)C)C(C)C)C(=O)N[C@@H](C)C(=O)N[C@@H](CC(N)=O)C(=O)N[C@H](C(N)=O)[C@@H](C)O [Peptide 406] (H-H[Aib]HGS[αMeF]TSDVSKK([AEEA-AEEA-γGlu-C18 diacid])LDSRAAQD[αMeF]VQ[Aib]IANT-NH2; N-terminus assumed)
6 |  |  |  | 0.37 nM | 4.4 | 0.828 nM | CC(C)C[C@H](NC(=O)[C@H](Cc1c[nH]c2ccccc12)NC(=O)[C@H](CCCNC(=N)N)NC(=O)[C@@H](NC(=O)[C@H](Cc1ccccc1)NC(=O)[C@H](CC(=O)O)NC(=O)[C@H](CCC(N)=O)NC(=O)[C@H](C)NC(=O)[C@H](CCCNC(=N)N)NC(=O)[C@H](CCCCNC(=O)COCCOCCNC(=O)COCCOCCNC(=O)CC[C@H](NC(=O)CC[C@H](NC(=O)CCCCCCCCCCCCCCCCCCC(=O)O)C(=O)O)C(=O)O)NC(=O)[C@@H](NC(=O)[C@H](CC(=O)O)NC(=O)[C@H](CC(C)C)NC(=O)[C@](C)(Cc1ccccc1)NC(=O)[C@H](CCCCN)NC(=O)[C@H](CO)NC(=O)[C@@H](NC(=O)[C@H](CC(=O)O)NC(=O)[C@H](CO)NC(=O)[C@@H](NC(=O)[C@H](Cc1ccccc1)NC(=O)[C@@H](NC(=O)CNC(=O)[C@H](CCC(N)=O)NC(=O)C(C)(C)NC(=O)[C@@H](N)Cc1c[nH]cn1)[C@@H](C)O)[C@@H](C)O)C(C)C)[C@@H](C)O)C(C)C)C(=O)N[C@@H](CCC(=O)O)C(=O)N[C@@H](C)C(=O)NC(C)(C)C(=O)NCC(=O)O [Peptide 408] (H-H[Aib]QGTFTSDVSK[αMeF]LDTK([AEEA-AEEA-γGlu-γGlu-C20 diacid])RAQDFVRWLEA[Aib]G-OH; N-terminus assumed)
7 |  |  |  | 0.0227 nM | 17.7 | 0.203 nM | CC(C)C[C@H](NC(=O)[C@H](Cc1c[nH]c2ccccc12)NC(=O)[C@H](C)NC(=O)[C@@H](NC(=O)[C@H](Cc1ccccc1)NC(=O)[C@H](CC(=O)O)NC(=O)[C@H](CCCNC(=N)N)NC(=O)[C@H](C)NC(=O)[C@H](CCCNC(=N)N)NC(=O)[C@H](CCCCNC(=O)COCCOCCNC(=O)COCCOCCNC(=O)CC[C@H](NC(=O)CCCCCCCCCCCCCCCCC(=O)O)C(=O)O)NC(=O)[C@@H](NC(=O)[C@H](CC(=O)O)NC(=O)[C@H](CC(C)C)NC(=O)[C@](C)(Cc1ccccc1)NC(=O)[C@H](CCCCN)NC(=O)[C@H](CO)NC(=O)[C@@H](NC(=O)[C@H](CC(=O)O)NC(=O)[C@H](CO)NC(=O)[C@@H](NC(=O)[C@H](Cc1ccccc1)NC(=O)[C@@H](NC(=O)CNC(=O)[C@H](CCC(N)=O)NC(=O)C(C)(C)NC(=O)[C@@H](N)Cc1c[nH]cn1)[C@@H](C)O)[C@@H](C)O)C(C)C)[C@@H](C)O)C(C)C)C(=O)N[C@@H](CC(C)C)C(=O)NC(C)(C)C(=O)N[C@H](C(=O)N[C@@H](CCC(=O)O)C(=O)O)[C@@H](C)O [Peptide 409] (H-H[Aib]QGTFTSDVSK[αMeF]LDTK([AEEA-AEEA-γGlu-C18 diacid])RARDFVAWLL[Aib]TE-OH; N-terminus assumed)
